Values after ≈ are worked out from the molar mass of the structure shown. Active and inactive are the calls of the source. The calls are words filed in the database; no cut-off is given here.

The nature of data set [1]: Inhibition of IL1 beta production in glia cells. Particulars: Homo sapiens. The data set is classed as functional, cell-based.
A short description of data set [2]: Aqueous solubility of the compound. The class given is physicochemical. The settings on record: buffer.
For data set [3], the system named is Cavia porcellus. The data set can be described thus: Cardiotoxicity in guinea pig assessed as prolongation of QTc interval at 15 mg/kg, po. The class given is toxicity, organism-based. Set-up: dose 15 mg/kg, route oral. Particulars: in vivo.
Data set [4] is described as follows: Brain penetration, LogBB of the compound. The data set is classed as ADME. The settings on record: read-out: logBB (converted).
For data set [5], the system named is Mus musculus. The data set can be described thus: Suppression of IL1-beta production in human amyloid-beta induced mouse injury model at […], po for 2 weeks after 60 days of injury. The data set is classed as functional, organism-based. Further details: dose 2.5 mg/kg.
The subject of data set [6] is Mus musculus. The data set can be described thus: Suppression of TNFalpha production in human amyloid-beta induced mouse injury model at […], po for 2 weeks after 60 days of injury. The data set is classed as functional, organism-based. Set-up: dose 2.5 mg/kg.
In data set [7] the test system is Mus musculus. The data set can be described thus: Suppression of S100B production in human amyloid-beta induced mouse injury model at […], po for 2 weeks after 60 days of injury. Set-up: dose 2.5 mg/kg. The data set is classed as functional, organism-based.
In data set [8] the test system is Mus musculus. The data set can be described thus: Reduction of GFAP-positive astrocytes in human amyloid-beta induced mouse injury model at […], po for 2 weeks after 60 days of injury. The class given is functional, organism-based. Further details: dose 2.5 mg/kg.
Data set [9] concerns Mus musculus. Description: Reduction of F4/80 positive microglia in human amyloid-beta induced mouse injury model at […], po for 2 weeks after 60 days of injury. Set-up: dose 2.5 mg/kg. The class given is functional, organism-based.
For data set [10], the species on record is Mus musculus. The data set can be described thus: Prevention of loss of synaptic protein synaptophytsin in human amyloid-beta induced mouse injury model. The data set is classed as functional, organism-based.
Data set [11] is filed under the species Mus musculus. The data set can be described thus: Prevention of loss of synaptic protein PSD95 in human amyloid-beta induced mouse injury model. The class given is functional, organism-based.
For data set [12], the species on record is Mus musculus. Description: Attenuation of hippocampal dependent behavioral deficits in mouse by Y maze test. The class given is functional, organism-based. Particulars: Hippocampus.
Data set [13] is filed under the species Homo sapiens. The data set can be described thus: Suppression of proinflammatory cytokine production in glia cells. The data set is classed as functional, cell-based.
The nature of data set [14]: Partition coefficient, log P of the compound. The settings on record: octanol/water. The class given is physicochemical.
Data set [15] is described as follows: Chemical stability in water. The class given is physicochemical. The settings on record: buffer.
Data set [16] can be described thus: Chemical stability in hydrogen peroxide upto 48 hrs. The class given is physicochemical. The settings on record: read-out: Stability.
The nature of data set [17]: Chemical stability in dilute base after 5 days. Particulars: read-out: Stability. The class given is physicochemical.

As a reminder, the IC50 is the concentration needed to halve the response being measured. High values mean lower potency, low ones higher potency. As usually defined, the Solubility is the dissolved amount per volume that the medium holds. As for `Cc1cc(-c2ccccc2)nnc1N1CCN(c2ncccn2)CC1` [MINOZAC FREE BASE], the IC50 in data set [1] came out at 8.3 µM. The same compound had a Solubility in data set [2] of 16 ng/mL (≈ 0.0481 µM). The Activity result in data set [3] was “Non-toxic”. Also, the Kp in data set [4] was 2.82.

With `Cc1cc(-c2ccccc2)nnc1N1CCN(c2ncccn2)CC1`, the result in data set [5], in [6], in [7], in data set [8], in data set [9] and in [10] was Active. Besides, the result in data set [11] and in data set [12] was Active.

In data set [1], `Clc1cc(-c2ccccc2)nnc1N1CCN(c2ncccn2)CC1` displayed an IC50 of 9.5 µM.

In turn, `c1ccc(-c2cc(-c3ccccc3)c(N3CCN(c4ncccn4)CC3)nn2)cc1` [listing 1 of 2 here] displayed a Solubility in data set [2] of less than 2 ng/mL.

In [1], `Cc1cc(-c2ccccc2)nnc1N1CCN(C2CCCCC2)CC1` yielded an IC50 of 31.4 µM. In other words, the double-digit micromolar range.

In [1], `Cc1cc(-c2ccccc2)nnc1N1CCN(C)CC1` had an IC50 of 48.9 µM.

Regarding `Cc1cc(-c2ccccc2)nnc1N1CCN(c2ccccc2)CC1`, the IC50 in [1] came to 15.5 µM. This IC50 is about 3.2-fold lower than that of the compound before.

As for `Cc1cc(-c2ccccc2)nnc1NCCN1CCOCC1`, the result in data set [13] was inactive.

For the compound `Cc1cc(-c2ccccc2)nnc1N1CCN(c2cnccn2)CC1`, the IC50 in data set [1] stood at 46.1 µM.

One may read the logP as the decadic logarithm of the partition coefficient of the neutral form, usually between octanol and water. Read a high logP as higher lipophilicity. In [14], `c1ccc(-c2cc(-c3ccccc3)c(N3CCN(c4ncccn4)CC3)nn2)cc1` [listing 2 of 2 here] had a lipophilicity (logP) of 2.7.

Consider `Cc1cc(-c2ccccc2)nnc1N1CCN(c2ncccn2)CC1.Cl.O`, for which the logP in data set [14] stood at 2.3. The compound further had a Stability in data set [15] of less than 5%. The remaining at 48 h in data set [16] is less than 10%. Also, in data set [17], the remaining at 120 h was found to be 53%.
